Literature values as cited in patent US20240075184A1, “BIODEGRADABLE IMPLANTS WITH ANTICORROSIVE COATINGS” (University of Georgia Research Foundation, Inc., priority 2021, published 2024).
Like-named read-outs stand apart in the source and are kept apart here.

How the values were obtained:
[1] = 0.4 M in corrosion solution, Mg alloy AZ31
[2] = 0.4 M in corrosion solution, high-purity Mg

O=C1C=C(O)C(=O)c2ccccc21 [Lawsone, 2-hydroxy-1,4-napthoquinone]
inhibition efficiency [1]: 90% | inhibition efficiency [2]: 97%
